From paper PMC3530649 (Journal of the American Chemical Society, 2012) come the findings set out here.

Data set [1] addresses T1, (E)-β-farnesene synthase (EBFS) (Mentha x piperita, UniProt O48935).
T1 sequence (O48935 1-550): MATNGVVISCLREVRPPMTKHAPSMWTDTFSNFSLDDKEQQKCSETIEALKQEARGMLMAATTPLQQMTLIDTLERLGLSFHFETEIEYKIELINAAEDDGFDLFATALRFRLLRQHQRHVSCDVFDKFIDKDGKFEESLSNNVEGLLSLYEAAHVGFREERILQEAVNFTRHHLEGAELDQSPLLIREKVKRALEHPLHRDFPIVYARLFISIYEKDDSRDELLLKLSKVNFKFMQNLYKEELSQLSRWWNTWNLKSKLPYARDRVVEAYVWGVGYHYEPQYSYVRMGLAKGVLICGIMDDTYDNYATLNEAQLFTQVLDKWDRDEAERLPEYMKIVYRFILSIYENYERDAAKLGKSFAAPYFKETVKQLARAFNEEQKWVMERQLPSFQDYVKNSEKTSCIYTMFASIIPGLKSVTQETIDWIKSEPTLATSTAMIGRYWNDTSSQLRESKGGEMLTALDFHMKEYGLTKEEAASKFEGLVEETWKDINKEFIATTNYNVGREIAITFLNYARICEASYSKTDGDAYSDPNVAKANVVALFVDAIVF
The data set can be described thus: steady-state inhibition, radiometric microassay. The class given is biochemical.

Substrate in data set [2]: CC(C)=CCC/C(C)=C/CC/C(C)=C/CO[P@@](=O)(O)OP(=O)(O)O
The data set can be described thus: purified protein. The conditions noted are these: labelled compound (tritiated).

Substrate in data set [3]: C=CC(C)(CC/C=C(\C)CCC=C(C)C)OP(=O)(O)OP(=O)(O)O
In words: steady-state kinetics, radiometric microassay. Type of data set: biochemical, Mentha x piperita. Particulars: labelled compound ((3RS)-(1Z)-trans-[1-3H1]NDP), racemic.

Substrate in data set [4]: CC(C)=CCC/C(C)=C/CC/C(C)=C(\F)COP(=O)(O)OP(=O)(O)O
In words: steady-state kinetics, radiometric microassay. Type of data set: biochemical, Mentha x piperita. The conditions noted are these: labelled compound ((1RS)-2-fluoro[1-3H1]FDP).

The Ki is a dissociation constant, usually derived from enzyme kinetics or from competition with a known ligand. A low value points to tighter binding. `CC(C)=CCC/C(C)=C/CC/C(C)=C(\F)COP(=O)(O)OP(=O)(O)O` [2F-3, (2Z,6E)-2-fluorofarnesyl diphosphate] had a Ki in data set [1] of 1300 ± 100 nM. On the same count and under the same terms, as for `CC(C)=CCC/C(C)=C/CC/C(=C/COP(=O)(O)OP(=O)(O)O)C(F)(F)F` [3CF3-3, (6E)-3-trifluoromethylfarnesyl diphosphate], the figure is 1600 ± 200 nM. Still for that read-out and setting: then `CC(C)=CCC/C(C)=C/CCC(=CCOP(=O)(O)OP(=O)(O)O)CF` [3CH2F-3, (6E)-3-fluoromethylfarnesyl diphosphate], with 2300 ± 200 nM.

B1: (E)-β-farnesene synthase (EBFS) (Mentha x piperita) (protein)
chain: MATNGVVISCLREVRPPMTKHAPSMWTDTFSNFSLDDKEQQKCSETIEALKQEARGMLMAATTPLQQMTLIDTLERLGLSFHFETEIEYKIELINAAEDDGFDLFATALRFRLLRQHQRHVSCDVFDKFIDKDGKFEESLSNNVEGLLSLYEAAHVGFREERILQEAVNFTRHHLEGAELDQSPLLIREKVKRALEHPLHRDFPIVYARLFISIYEKDDSRDELLLKLSKVNFKFMQNLYKEELSQLSRWWNTWNLKSKLPYARDRVVEAYVWGVGYHYEPQYSYVRMGLAKGVLICGIMDDTYDNYATLNEAQLFTQVLDKWDRDEAERLPEYMKIVYRFILSIYENYERDAAKLGKSFAAPYFKETVKQLARAFNEEQKWVMERQLPSFQDYVKNSEKTSCIYTMFASIIPGLKSVTQETIDWIKSEPTLATSTAMIGRYWNDTSSQLRESKGGEMLTALDFHMKEYGLTKEEAASKFEGLVEETWKDINKEFIATTNYNVGREIAITFLNYARICEASYSKTDGDAYSDPNVAKANVVALFVDAIVF
One may read the Km as the concentration of substrate that gives half-maximal velocity. Take B1: the Km in data set [2] was 1.8 ± 0.2 µM; in data set [3], 25.0 ± 4.2 µM; in data set [4], 1.6 ± 0.2 µM.
